The assay addresses T1, glucokinase (residues 12-465 of the human enzyme) (Homo sapiens, UniProt P35557).
T1 construct: FLAG (vector pFLAG-CTC) (C); made in house; host or cells: E. coli DH10b-T1r (pFLAG-CTC)
T1 sequence (P35557 12-465): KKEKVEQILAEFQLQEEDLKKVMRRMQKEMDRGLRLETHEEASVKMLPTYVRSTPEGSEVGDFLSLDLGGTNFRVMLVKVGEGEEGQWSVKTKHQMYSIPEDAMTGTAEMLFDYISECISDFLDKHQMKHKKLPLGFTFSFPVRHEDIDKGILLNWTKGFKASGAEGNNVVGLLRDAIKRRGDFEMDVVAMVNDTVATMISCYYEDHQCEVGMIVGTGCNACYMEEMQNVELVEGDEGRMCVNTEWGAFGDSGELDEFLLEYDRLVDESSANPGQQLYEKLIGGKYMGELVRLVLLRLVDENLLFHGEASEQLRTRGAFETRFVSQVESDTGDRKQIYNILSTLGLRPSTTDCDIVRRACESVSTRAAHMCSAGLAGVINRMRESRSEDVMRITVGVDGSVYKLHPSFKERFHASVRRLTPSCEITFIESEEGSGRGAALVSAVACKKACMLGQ
As to the kind of experiment: Measurement of GK activation value (ATP/glucose, luciferase luminescence). It is filed as biochemical. As to conditions: values given as ranges; for EC50: Kact = concentration that displays 50% of the maximal increase in GK activity, room temperature, 60 min, read-out: pKact; for Emax: calculated maximal gain in GK enzyme activity at a saturating concentration of the compound, read-out: % ACTmaxc. The text has this: Purified glucokinase may be obtained as follows. DNA encoding residues 12-465 of the full-length sequence of the human enzyme may be amplified by PCR and cloned into the HindIII and EcoRI sites of pFLAG-CTC (Sigma). SEQ ID No. 5 corresponds to residues 12-465 of glucokinase.
The expression of recombinant glucokinase protein may be carried out by transformation and growth of DH10b-T1r E. coli cells incorporating the (pFLAG-CTC) plasmid in LB media. Protein expression can be induced in this system by the addition of IPTG to the culture medium.
Recombinant protein may be isolated from cellular extracts by passage over Sepharose Q Fast Flow resin (Pharmacia). This partially purified GK extract may then be further purified by a second passage over Poros HQ10 (Applied Biosystems). The purity of GK may be determined on denaturing SDS-PAGE gel. Purified GK may then be concentrated to a final concentration of 20.0 mg/ml. After flash freezing in liquid nitrogen, the proteins can be stored at −78° C. in a buffer containing 25 mM TRIS-HCl pH 7.6, 50 mM NaCl, and 0.5 mM TCEP.
The assay reaction may be initiated as follows: 4 μl of substrate mixture (12.5 μM ATP and 12.5 mM Glucose) was added to each well of the plate, followed by the addition of 2 μl of activator (2 fold serial dilutions for 11 data points for each activator) containing 10% DMSO. 4 μL of 1.25 nM GK solution may be added to initiate the reaction. The reaction mixture may then be incubated at room temperature for 60 min, and quenched and developed by addition of 10 μL of luciferase reagent. Luminescence intensities of the resulting reaction mixtures may be measured after a 10 min incubation at room temperature. The luminescence intensity may be measured by using the Analyst HT from LJL Biosystems.
pKact and % ACTmax values may be calculated by non-linear curve fitting of the compound concentrations and luminescence intensities to a standard inhibition/activation equation.

As for `CC(C)Oc1ccc(OCc2ccccc2)cc1-c1nc2cc(-c3cccc(F)c3)cnc2[nH]1` [Example 71, 2-[5-(benzyloxy)-2-isopropoxyphenyl]-6-(3-fluorophenyl)-3H-imidazo[4,5-b]pyridine], the EC50 is 398 to 1000 nM and the Emax was 20 to 29.9%.

`CC(C)Oc1cc(OCc2ccccc2)cc(-c2nc3cccnc3[nH]2)c1` [Example 158, 2-(3-(benzyloxy)-5-isopropoxyphenyl)-3H-imidazo[4,5-b]pyridine]: the EC50 was in the range of 126 to 316 nM and the Emax is 20 to 29.9%.

Turning to `CC(C)Oc1cc(OCCCc2ccccc2)cc(-c2nc3cccnc3[nH]2)c1` [Example 159, 2-(3-isopropoxy-5-(3-phenylpropoxy)phenyl)-3H-imidazo[4,5-b]pyridine], the EC50 lay in the range of 398 to 1000 nM and the Emax is 20 to 29.9%.

With `CC(C)Oc1cc(OCCc2ccccc2)cc(-c2nc3cccnc3[nH]2)c1` [Example 161, 2-(3-isopropoxy-5-phenethoxyphenyl)-3H-imidazo[4,5-b]pyridine], the EC50 was less than 100 nM and the Emax is 30 to 49.9%.

Take `Cn1ccnc1COc1cc(OCc2ccccc2)cc(-c2nc3cccnc3[nH]2)c1` [Example 162, 2-(3-(benzyloxy)-5-((1-methyl-1H-imidazol-2-yl)methoxy)phenyl)-3H-imidazo[4,5-b]pyridine]: the EC50 is 126 to 316 nM and the Emax is more than 70%.

Turning to `Cn1ccnc1COc1cc(OCc2ccccc2)cc(-c2nc3cc(Br)cnc3[nH]2)c1` [Example 163, 2-(3-(benzyloxy)-5-((1-methyl-1H-imidazol-2-yl)methoxy)phenyl)-6-bromo-3H-imidazo[4,5-b]pyridine], the EC50 is less than 100 nM and the Emax was 50 to 69.9%.

With `Cn1ccnc1COc1cc(OCCc2ccsc2)cc(-c2nc3cc(Br)cnc3[nH]2)c1` [Example 164, 6-bromo-2-(3-((1-methyl-1H-imidazol-2-yl)methoxy)-5-(2-(thiophen-3-yl)ethoxy)phenyl)-3H-imidazo[4,5-b]pyridine], the EC50 was in the range of 126 to 316 nM and the Emax is 50 to 69.9%.

As for `Cn1ccnc1COc1cc(OCc2ccccc2F)cc(-c2nc3cccnc3[nH]2)c1` [Example 165, 2-(3-(2-fluorobenzyloxy)-5-((1-methyl-1H-imidazol-2yl)methoxy)phenyl)-3H-imidazo[4,5-b]pyridine], the EC50 is less than 100 nM and the Emax was more than 70%.

For `Cn1ccnc1COc1cc(OCc2ccccc2F)cc(-c2nc3cc(Cl)cnc3[nH]2)c1` [Example 166, 6-chloro-2-(3-(2-fluorobenzyloxy)-5-((1-methyl-1H-imidazol-2-yl)methoxy)phenyl)-3H-imidazo[4,5-b]pyridine], the EC50 was less than 100 nM and the Emax is more than 70%.

With `Cn1ccnc1COc1cc(OCc2ccccc2F)cc(-c2nc3cc(Br)cnc3[nH]2)c1` [Example 167, 6-bromo-2-(3-(2-fluorobenzyloxy)-5-((1-methyl-1H-imidazol-2-yl)methoxy)phenyl)-3H-imidazo[4,5-b]pyridine], the EC50 is less than 100 nM and the Emax is more than 70%.

`Cn1ccnc1COc1cc(OCc2ccccc2F)cc(-c2nc3cc(CCCO)cnc3[nH]2)c1` [Example 168, 3-(2-(3-(2-fluorobenzyloxy)-5-((1-methyl-1H-imidazol-2-yl)methoxy)phenyl)-3H-imidazo[4,5-]pyridin-6-yl)propan-1-ol]: the EC50 lay within 126 to 316 nM and the Emax is more than 70%.

For `COC[C@@H](C)Oc1cc(OCc2ccccc2F)cc(-c2nc3cccnc3[nH]2)c1` [Example 172, (R)-2-(3-(2-fluorobenzyloxy)-5-(1-methoxypropan-2-yloxy)phenyl)-3H-imidazo[4,5-b]pyridine], the EC50 lay within 398 to 1000 nM and the Emax was 50 to 69.9%.

Consider `COC[C@@H](C)Oc1cc(OCc2ccccc2F)cc(-c2nc3cc(Cl)cnc3[nH]2)c1` [Example 173, (R)-6-chloro-2-(3-(2-fluorobenzyloxy)-5-(1-methoxypropan-2-yloxy)phenyl)-3H-imidazo[4,5-b]pyridine], for which the EC50 was 126 to 316 nM and the Emax is 50 to 69.9%.

As for `COC[C@@H](C)Oc1cc(OCc2ccccc2F)cc(-c2nc3cc(Br)cnc3[nH]2)c1` [Example 174, (R)-6-bromo-2-(3-(2-fluorobenzyloxy)-5-(1-methoxypropan-2-yloxy)phenyl)-3H-imidazo[4,5-b]pyridine], the EC50 lay in the range of 126 to 316 nM and the Emax was 30 to 49.9%.

`COC[C@H](C)Oc1cc(OCc2ccccc2F)cc(-c2nc3cc(CCCO)cnc3[nH]2)c1` [Example 177, (S)-3-(2-(3-(2-fluorobenzyloxy)-5-(1-methoxypropan-2-yloxy)phenyl)-3H-imidazo[4,5-b]pyridin-6-yl)propan-1-ol]: the EC50 fell in the range of 398 to 1000 nM and the Emax is 20 to 29.9%.

Regarding `COC[C@H](C)Oc1cc(Oc2ccc(S(C)(=O)=O)cc2)cc(-c2nc3cccnc3[nH]2)c1` [Example 181, (S)-2-(3-(1-methoxypropan-2-yloxy)-5-(4-(methylsulfonyl)phenoxy)phenyl)-3H-imidazo[4,5-b]pyridine], the EC50 is 398 to 1000 nM and the Emax is more than 70%.

`Brc1cnc2[nH]c(-c3ccccc3Oc3ccccc3)nc2c1` [Example 188, 6-bromo-2-(2-phenoxyphenyl)-3H-imidazo[4,5-b]pyridine]: the EC50 lay in the range of 398 to 1000 nM and the Emax was 30 to 49.9%.

As to `CC(C)Oc1ccc(/C=C/c2ccccc2)cc1-c1nc2cccnc2[nH]1` [Example 196, (E)-2-(2-isopropoxy-5-styrylphenyl)-3H-imidazo[4,5-b]pyridine], the EC50 fell in the range of 398 to 1000 nM and the Emax is more than 70%.

For the compound `Cn1ccnc1CNc1cc(NS(=O)(=O)c2ccccc2)cc(-c2nc3cc(Br)cnc3[nH]2)c1` [Example 213, N-(3-(6-bromo-3H-imidazo[4,5-b]pyridin-2-yl)-5-((1-methyl-1H-imidazol-2-yl)methylamino)phenyl)benzenesulfonamide], the EC50 lay in the range of 126 to 316 nM and the Emax is 30 to 49.9%.

With `Cn1ccnc1CNc1cc(NS(C)(=O)=O)cc(-c2nc3cc(Br)cnc3[nH]2)c1` [Example 214, N-(3-(6-bromo-3H-imidazo[4,5-b]pyridin-2-yl)-5-((1-methyl-1H-imidazol-2-yl)methylamino)phenyl)methanesulfonamide], the EC50 was in the range of 398 to 1000 nM and the Emax was 30 to 49.9%.

For `COc1ccc(OCc2ccccc2)cc1-c1nc2cc(Br)cnc2[nH]1` [Example 243, 2-(5-(benzyloxy)-2-methoxyphenyl)-6-bromo-3H-imidazo[4,5-b]pyridine], the EC50 lay within 126 to 316 nM and the Emax was 30 to 49.9%.

On to `Brc1cnc2[nH]c(-c3ccccc3Oc3cccnc3)nc2c1` [Example 244, 6-bromo-2-(2-(pyridin-3-yloxy)phenyl)-3H-imidazo[4,5-b]pyridine], for which the EC50 fell in the range of 398 to 1000 nM and the Emax was 20 to 29.9%.

Take `Fc1ccccc1COc1cc(Oc2ncccn2)cc(-c2nc3cc(Br)cnc3[nH]2)c1` [Example 245, 6-bromo-2-(3-(2-fluorobenzyloxy)-5-(pyrimidin-2-yloxy)phenyl)-3H-imidazo[4,5-b]pyridine]: the EC50 was 398 to 1000 nM and the Emax is more than 70%.

As for `COc1ccc(/C=C/c2ccncc2)cc1-c1nc2cccnc2[nH]1` [Example 246, (E)-2-(2-methoxy-5-(2-(pyridin-4-yl)vinyl)phenyl)-3H-imidazo[4,5-b]pyridine], the EC50 lay in the range of 398 to 1000 nM and the Emax was 30 to 49.9%.

(Values after patent US8124617B2, “Imidazopyridine compounds” (Takeda San Diego, Inc., priority 2005, dated 2012).)
